Common to all, as to type: cell-based
Assay [1] has as its target T1, murine CCR2 (Mus musculus, UniProt P51683).
T1 construct: host or cells: U2OS β-arrestin cell line
Description: Functional β-arrestin recruiting test with murine MCP-1 (B-2b). The conditions noted are these: U2OS β-arrestin cell line transfected with murine CCR2; agonist murine MCP-1. The method, then:
(§1) The antagonistic action of test substances on CCR2 was determined in a β-arrestin test. The PathHunter β-arrestin GPCR test system (DiscoveRx Corporation, Ltd.) is a cell-based functional method for detecting binding of β-arrestin to an activated receptor. The molecular basis is a β-galactosidase complementation measured by the enzymatic conversion of a chemiluminescent substrate. The test cell used was a U2OS β-arrestin cell line transfected with murine CCR2 (93-0543C3, DiscoveRx Corporation, Ltd.).
(§2) The test substances were dissolved in dimethyl sulphoxide (DMSO) at a concentration of 10 mM and serially diluted with DMSO in steps of 1:3.16 for a 10-point dose/activity analysis. According to the desired test concentrations, the substances were pre-diluted in Tyrode with 2 mM CaCl2 and 0.05% BSA.
(§3) The cells, cultivated in MEM Eagle (supplemented with 10% FCS, 50 U/ml of penicillin, 50 μg/ml of streptomycin, 250 μg/ml of hygromycin and 500 μg/ml of geniticin), were sown at 2000 cells/25 μl in 384 well, μCLEAR/black cell culture plates from Greiner (#781092) and incubated at 37° C. for 24 h. The sowing medium consisted of Opti-MEM (supplemented with 1% FCS, 50 U/ml of penicillin and 50 μg/ml of streptomycin). The cells were pre-incubated for 10 min with 10 μl of the test substances diluted in buffer, and 10 μl of agonist solution [human MCP-1 (PeproTech, #300-04) in Tyrode with 0.05% BSA] were then added. The human MCP-1 was employed at the concentration which corresponds to the EC50 which had been determined in a preliminary test (usually about 3 nM). After 90 min of incubation at 37° C., the solution was removed, and recruitment of β-arrestin to CCR2 was detected with the aid of the PathHunter detection reagent (93-001, DiscoveRx Corporation, Ltd.) according to the instructions of the manufacturer. Luminescence was measured after an incubation time of 60 min using a proprietary luminescence imaging measuring instrument. The molar concentration of the test substance which caused 50% inhibition of the MCP-1 effect (IC50) was determined using a 4-parameter logistic function (Hill function).
The test was carried out in a manner identical to that described above under B-2a, but using murine MCP-1 (PeproTech, #250-10) as agonist.
Background: Arrestin recruitment assays detect the binding of arrestin to an activated receptor.

Assay [2] addresses T1, murine CCR2. Description: Functional β-arrestin recruiting test with human MCP-1 (B-2a). The conditions noted are these: U2OS β-arrestin cell line transfected with murine CCR2; agonist human MCP-1 at EC50 (about 3 nM). As for the experimental part:
as §1, §2, §3

The next assay has as its target T2, human CCR2 (Homo sapiens, UniProt P41597).
T2 construct: host or cells: Chem-1 cell line
T2 sequence (P41597 1-360 isoform P41597-2): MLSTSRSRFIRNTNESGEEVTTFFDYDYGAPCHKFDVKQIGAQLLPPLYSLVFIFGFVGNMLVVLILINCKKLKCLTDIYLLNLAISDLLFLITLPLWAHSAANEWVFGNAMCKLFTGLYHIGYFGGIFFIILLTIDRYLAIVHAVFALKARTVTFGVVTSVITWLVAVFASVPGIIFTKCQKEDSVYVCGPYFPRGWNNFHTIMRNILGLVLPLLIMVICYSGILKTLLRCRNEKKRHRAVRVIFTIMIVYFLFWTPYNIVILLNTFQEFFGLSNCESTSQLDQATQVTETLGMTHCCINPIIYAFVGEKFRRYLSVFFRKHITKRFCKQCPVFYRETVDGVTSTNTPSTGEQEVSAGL
Nature of the assay: Functional Ca2+ release test (B-1). The conditions noted are these: Chem-1 cell line transfected with human CCR2, inhibition of MCP-1 effect, MCP-1 at EC50 (about 5 nM), Fluo-4. As for the experimental part:
The antagonistic action of test substances on CCR2 was determined in a functional Ca^2+ release test. Binding of CCL2/MCP-1 to CCR2 leads to a change in the conformation of the receptor resulting in Gi/Gq protein activation and intracellular signal cascade. This involves, inter alia, an intracellular Ca^2+ release. The test cell used was a Chem-1 cell line transfected with human CCR2 (ChemiSCREEN™ CCR2B Calcium-Optimized FLIPR Cell Line, Merck Millipore).
as §2
The cells, cultivated in DMEM high glucose [supplemented with 10% FCS, 1 mM pyruvate, 15 mM HEPES, 500 μg/ml geniticin and non-essential amino acids (NEAA)], were sown at 5000 cells/25 μl in 384 well, μCLEAR/black cell culture plates from Greiner (#781092) and incubated at 37° C. for 24 h. The sowing medium consisted of DMEM high glucose [supplemented with 5% FCS, 1 mM pyruvate, 15 mM HEPES, 50 U/ml penicillin, 50 μg/ml streptomycin and non-essential amino acids (NEAA)]. The medium was then removed and the cells were charged for 60 min at 37° C. with Fluo-4 dye [25 μl Tyrode with 3 μM Fluo-4 AM (1 mM DMSO stock solution), 0.4 mg/ml Brilliant Black, 2.5 mM probenicid, 0.03% Pluronic F-127]. The cells were pre-incubated for 10 min with 10 μl of the test substances diluted in buffer, and 20 μl of agonist solution (MCP-1 in Tyrode with 0.05% BSA) were then added. MCP-1 was employed at the concentration which corresponds to the EC50 which had been determined in a preliminary test (usually about 5 nM). Ca^2+ release was monitored over a period of 120 s in 1 s increments in a proprietary fluorescence imaging reader. The molar concentration of the test substance which caused 50% inhibition of the MCP-1 effect (IC50) was determined using a 4-parameter logistic function (Hill function).

The results in this text go back to US20160221965A1, “DISUBSTITUTED TRIFLUOROMETHYL PYRIMIDINONES AND THEIR USE” (BAYER PHARMA AKTIENGESELLSCHAFT, priority 2013, published 2016).

What is called IC50 is the concentration that inhibits the measured activity by half. The low end stands for greater potency, the high end for weaker potency.

T1 sequence (P51683 whole entry): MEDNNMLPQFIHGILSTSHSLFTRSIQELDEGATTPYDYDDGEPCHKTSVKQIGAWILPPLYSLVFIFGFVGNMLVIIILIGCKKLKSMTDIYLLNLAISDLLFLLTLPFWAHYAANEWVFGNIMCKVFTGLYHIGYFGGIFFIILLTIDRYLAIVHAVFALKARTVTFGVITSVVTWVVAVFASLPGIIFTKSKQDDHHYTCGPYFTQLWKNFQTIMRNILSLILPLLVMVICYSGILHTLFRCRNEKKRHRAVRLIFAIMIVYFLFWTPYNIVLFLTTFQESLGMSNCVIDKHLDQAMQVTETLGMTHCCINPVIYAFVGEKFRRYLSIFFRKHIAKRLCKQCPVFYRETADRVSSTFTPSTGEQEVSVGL

Consider `Nc1nc(C(F)(F)F)c(Cc2ccc(Cl)c(Cl)c2)c(=O)[nH]1` [Example 1, 2-Amino-5-(3,4-dichlorobenzyl)-6-(trifluoromethyl)pyrimidin-4(3H)-one], for which the values for the concentration for half-maximal inhibition (IC50) at murine CCR2 [1], on murine CCR2 [2] and against human CCR2 were 312 nM, 200 nM and 19 nM, respectively.
On to `Nc1nc(C(F)(F)F)c(Oc2ccc(Cl)c(C(F)(F)F)c2)c(=O)[nH]1` [Example 2, 2-Amino-5-[4-chloro-3-(trifluoromethyl)phenoxy]-6-(trifluoromethyl)pyrimidin-4(3H)-one], for which the half-maximal inhibitory concentration (IC50) on murine CCR2 [1] is 69 nM; at murine CCR2 [2] it was 23 nM; against human CCR2 it was 3.3 nM.
For `Nc1nc(C(F)(F)F)c(Oc2ccc(Cl)c(Cl)c2)c(=O)[nH]1` [Example 3, 2-Amino-5-(3,4-dichlorophenoxy)-6-(trifluoromethyl)pyrimidin-4(3H)-one], the IC50 at murine CCR2 [1] was determined as 280 nM; at murine CCR2 [2], 49 nM; against human CCR2 it was 3.4 nM.
As to `Nc1nc(C(F)(F)F)c(Oc2ccc(Cl)c(OC(F)(F)F)c2)c(=O)[nH]1` [Example 57], the IC50 at murine CCR2 [1] came out at 2270 nM; on human CCR2, 1.8 nM.
For `Nc1nc(C(F)(F)F)c(Cc2ccc(Cl)nc2)c(=O)[nH]1` [Example 58], the IC50 was found to be 60000 nM on murine CCR2 [1] and 381 nM against human CCR2.
In the case of `Nc1nc(C(F)(F)F)c(Cc2cnc(Cl)c(Cl)c2)c(=O)[nH]1` [Example 59], the half-maximal inhibitory concentration (IC50) at murine CCR2 [1] is 7280 nM; against human CCR2, 11 nM.
With `Nc1nc(C(F)(F)F)c([S+]([O-])c2ccc(Cl)c(C(F)(F)F)c2)c(=O)[nH]1` (stereo not drawn) [Example 60, 2-Amino-5-{[4-chloro-3-(trifluoromethyl)phenyl]sulphinyl}-6-(trifluoromethyl)pyrimidin-4(3H)-one], the IC50 on murine CCR2 [1] was found to be 1430 nM; against human CCR2, 117 nM.
Regarding `Nc1nc(C(F)(F)F)c(S(=O)(=O)c2ccc(Cl)c(C(F)(F)F)c2)c(=O)[nH]1` [Example 61], the IC50 was found to be 2950 nM on murine CCR2 [1] and 110 nM against human CCR2.
For `Nc1nc(C(F)(F)F)c([S+]([O-])c2ccc(Cl)c(Cl)c2)c(=O)[nH]1` (stereo not drawn) [Example 62] the same measures were 1340 nM and 542 nM.
For `Nc1nc(C(F)(F)F)c(S(=O)(=O)c2ccc(Cl)c(Cl)c2)c(=O)[nH]1` [Example 63] the same measures were 2200 nM and 326 nM.
As for `CCNc1nc(C(F)(F)F)c(Oc2ccc(Cl)c(Cl)c2)c(=O)[nH]1` [Example 64, 5-(3,4-Dichlorophenoxy)-2-(ethylamino)-6-(trifluoromethyl)pyrimidin-4(3H)-one], the values for the 50% inhibitory concentration (IC50) at murine CCR2 [1] and against human CCR2 were 2700 nM and 13 nM, respectively.
Regarding `CC(C)Nc1nc(C(F)(F)F)c(Oc2ccc(Cl)c(Cl)c2)c(=O)[nH]1` [Example 65], the 50% inhibitory concentration (IC50) at murine CCR2 [1] came to 1630 nM; on human CCR2 it was 121 nM.
With `CNc1nc(C(F)(F)F)c(Oc2ccc(Cl)c(Cl)c2)c(=O)[nH]1` [Example 66], the half-maximal inhibitory concentration (IC50) at murine CCR2 [1] was 506 nM; against human CCR2, 9.8 nM.
For `O=c1[nH]c(CCO)nc(C(F)(F)F)c1Oc1ccc(Cl)c(Cl)c1` [Example 68], the half-maximal inhibitory concentration (IC50) on murine CCR2 [2] turned out to be 370 nM; on human CCR2 it was 49 nM.
Turning to `O=c1[nH]c(C2CCC2)nc(C(F)(F)F)c1Oc1ccc(Cl)c(Cl)c1` [Example 69], the IC50 on murine CCR2 [1] amounted to 523 nM; at human CCR2, 32 nM.
For the compound `CC(c1ccc(Cl)c(Cl)c1)c1c(C(F)(F)F)nc(N)[nH]c1=O` (stereo not drawn) [Example 70], the half-maximal inhibitory concentration (IC50) at murine CCR2 [1] stood at 3710 nM; against human CCR2, 45 nM.
`Cc1ccc(Oc2c(C(F)(F)F)nc(N)[nH]c2=O)cc1Cl` [Example 71]: the half-maximal inhibitory concentration (IC50) amounted to 1720 nM on murine CCR2 [1] and 2.4 nM against human CCR2.
Consider `Cc1cc(Oc2c(C(F)(F)F)nc(N)[nH]c2=O)ccc1Cl` [Example 72], for which the IC50 was found to be 545 nM on murine CCR2 [1] and 1.5 nM at human CCR2.
Consider `Nc1nc(C(F)(F)F)c(Oc2ccc(Cl)cc2)c(=O)[nH]1` [Example 73], for which the values for the concentration for half-maximal inhibition (IC50) at murine CCR2 [1] and on human CCR2 were 2310 nM and 38 nM, respectively.
Consider `Nc1nc(C(F)(F)F)c(Oc2ccc(C(F)(F)F)cc2)c(=O)[nH]1` [Example 74], for which the half-maximal inhibitory concentration (IC50) on murine CCR2 [1] was found to be 4160 nM; at human CCR2 it was 50 nM.
Take `Nc1nc(C(F)(F)F)c(Oc2cccc(C(F)(F)F)c2)c(=O)[nH]1` [Example 75]: the 50% inhibitory concentration (IC50) was 9490 nM on murine CCR2 [1] and 21 nM against human CCR2.
